Results on 40 compounds are retold here after patent US9890142B2, “PDE4 inhibitor” (Meiji Seika Pharma Co., Ltd., priority 2013, dated 2018).

The test system of this test is PDE4. The test is described as follows: Evaluation of PDE4 inhibition (scintillation proximity assay). The class given is biochemical. As to conditions: inhibition rate relative to control, test compound at 1 μM. The protocol: Test Example 1 Evaluation of PDE4 Inhibition
The PDE4 inhibitory activity was measured by using scintillation proximity assay (SPA) as follows: one in which a sample compound dissolved in dimethyl sulfoxide was diluted 10-fold with a buffer solution for reaction containing 50 mM Tris-HCl, pH 7.5, 8.3 mM MgCl2, 1.7 mM EDTA and 0.3 mg/mL bovine serum albumin (BSA) was added at 10 μL/well to a 96-well assay plate. Further, PDE4 diluted 750-fold with a buffer solution for reaction was added at 50 μL/well, then [2,8-^3H]-Adenosine-3′,5′-cyclic phosphate triethylammonium salt diluted 1000-fold with a buffer solution for reaction was added at 40 μL/well, and the plate was left standing at room temperature for 120 minutes. Thereafter, a suspension of RNA binding YSi-SPA Beads containing 200 mM ZnSO4 was added at 50 μL/well, and the plate was left standing at room temperature for 15 minutes to adsorb the enzyme reaction product onto the Beads. Thereafter, the radioactivity was measured with a liquid scintillation counter for 96-well plates. When one supplemented with only a buffer solution for reaction without adding the enzyme preparation was used as a blank and one supplemented with the enzyme preparation but supplemented with only dimethyl sulfoxide instead of the sample solution was used as a control, the inhibition rate of the test compound relative to the control was calculated according to the following calculation expression: Inhibition rate (%)={1−(Numeric value from the addition of each sample−Blank value)/(Control value−Blank value)}×100
As to `C[C@H]1CNCCN1c1nc2cc(Cl)cc(C3CCCO3)c2o1` (mixture of isomers) [Example 80, 5-Chloro-2-((S)-2-methylpiperazin-1-yl)-7-(tetrahydrofuran-2-yl)benzoxazole], the “PDE4 inhibitory activity (1 μM (%))” value is 42%. For `CC(C)c1cc(Cl)cc2nc(N3CCNC[C@@H]3C)oc12` [Example 1, (S)-5-Chloro-7-isopropyl-2-(2-methylpiperazin-1-yl)benzoxazole], the “PDE4 inhibitory activity (1 μM (%))” value was found to be 87%.

For `COc1cc(Cl)cc2nc(N3CCNC[C@@H]3C)oc12` [Example 2, (S)-5-Chloro-7-methoxy-2-(2-methylpiperazin-1-yl)benzoxazole], the “PDE4 inhibitory activity (1 μM (%))” value was 23%. For `CC(=O)c1cc(Cl)cc2nc(N3CCNC[C@@H]3C)oc12` [Example 3, (S)-7-Acetyl-5-chloro-2-(2-methylpiperazin-1-yl)benzoxazole] the value was 50%; for `Cc1cc(Cl)cc2nc(N3[C@H](C)CNC[C@@H]3C)oc12` [Example 4, meso-5-Chloro-2-(2,6-cis-dimethylpiperazin-1-yl)-7-methylbenzoxazole], 18%.

`Cc1cc(F)cc2nc(N3CCNC[C@@H]3C)oc12` [Example 5, (S)-5-Fluoro-7-methyl-2-(2-methylpiperazin-1-yl)benzoxazole]: the “PDE4 inhibitory activity (1 μM (%))” value is reported as 25%. For `Cc1cc(Br)cc2nc(N3CCNC[C@@H]3C)oc12` [Example 6, (S)-5-Bromo-7-methyl-2-(2-methylpiperazin-1-yl)benzoxazole] the value was 36%; for `CC(C)Oc1cc(Cl)cc2nc(N3CCNC[C@@H]3C)oc12` [Example 7, (S)-5-Chloro-7-isopropoxy-2-(2-methylpiperazin-1-yl)benzoxazole], 59%. For `CCc1cc(Cl)cc2nc(N3CCNC[C@@H]3C)oc12` [Example 8, (S)-5-Chloro-7-ethyl-2-(2-methylpiperazin-1-yl)benzoxazole] the value was 79%. Regarding `CCOC(=O)c1cc(Cl)cc2nc(N3CCNC[C@@H]3C)oc12` [Example 9, (S)-5-Chloro-7-ethoxycarbonyl-2-(2-methylpiperazin-1-yl)benzoxazole], the “PDE4 inhibitory activity (1 μM (%))” value turned out to be 50%. In the case of `C[C@H]1CNCCN1c1nc2cc(Cl)cc(C#N)c2o1` [Example 10, (S)-5-Chloro-7-cyano-2-(2-methylpiperazin-1-yl)benzoxazole] it was 36%. Take `CCc1cc(Cl)cc2nc(N3CCNC[C@@H]3C(C)C)oc12` [Example 11, (S)-5-Chloro-7-ethyl-2-(2-isopropylpiperazin-1-yl)benzoxazole]: the “PDE4 inhibitory activity (1 μM (%))” value turned out to be 26%. Turning to `CCc1cc(Cl)cc2nc(N3CCNC[C@@H]3CC(C)C)oc12` [Example 12, (S)-5-Chloro-7-ethyl-2-(2-isobutylpiperazin-1-yl)benzoxazole], the “PDE4 inhibitory activity (1 μM (%))” value was less than 10%.

`CCCC[C@H]1CNCCN1c1nc2cc(Cl)cc(CC)c2o1` [Example 13, (S)-2-(2-n-Butylpiperazin-1-yl)-5-chloro-7-ethylbenzoxazole]: the “PDE4 inhibitory activity (1 μM (%))” value is given as less than 10%. Take `CCc1cc(Cl)cc2nc(N3CCNC[C@@H]3CC)oc12` [Example 14, (S)-5-Chloro-7-ethyl-2-(2-ethylpiperazin-1-yl)benzoxazole]: the “PDE4 inhibitory activity (1 μM (%))” value is given as 37%. In the case of `C[C@H]1CNCCN1c1nc2cc(Cl)cc(CO)c2o1` [Example 15, (S)-5-Chloro-7-hydroxymethyl-2-(2-methylpiperazin-1-yl)benzoxazole] it was 21%; in that of `C[C@H]1CNCCN1c1nc2cc(Cl)cc(-c3ccsc3)c2o1` [Example 16, (S)-5-Chloro-2-(2-methylpiperazin-1-yl)-7-(thiophen-3-yl)benzoxazole], 75%; in that of `C[C@H]1CNCCN1c1nc2cc(Cl)cc(-c3ccoc3)c2o1` [Example 17, (S)-5-Chloro-7-(furan-3-yl)-2-(2-methylpiperazin-1-yl)benzoxazole], 84%. In the case of `C[C@H]1CNCCN1c1nc2cc(Cl)cc(-c3cccs3)c2o1` [Example 18, (S)-5-Chloro-2-(2-methylpiperazin-1-yl)-7-(thiophen-2-yl)benzoxazole] it was 76%; in that of `C[C@H]1CNCCN1c1nc2cc(Cl)cc(-c3ccccc3)c2o1` [Example 19, (S)-5-Chloro-2-(2-methylpiperazin-1-yl)-7-phenylbenzoxazole], 76%; in that of `C[C@H]1CNCCN1c1nc2cc(Cl)cc(N3CCCC3)c2o1` [Example 20, (S)-5-Chloro-2-(2-methylpiperazin-1-yl)-7-(pyrrolidin-1-yl)benzoxazole], 71%. In the case of `C[C@H]1CNCCN1c1nc2cc(Cl)cc(N3CCOCC3)c2o1` [Example 21, (S)-5-Chloro-2-(2-methylpiperazin-1-yl)-7-(morpholin-1-yl)benzoxazole] it was 59%; in that of `C[C@H]1CNCCN1c1nc2cc(Cl)cc(N3CCCCC3)c2o1` [Example 22, (S)-5-Chloro-2-(2-methylpiperazin-1-yl)-7-(piperidin-1-yl)benzoxazole], 40%. With `C[C@H]1CNCCN1c1nc2cc(Cl)cc(-c3ccco3)c2o1` [Example 23, (S)-5-Chloro-7-(furan-2-yl)-2-(2-methylpiperazin-1-yl)benzoxazole], the “PDE4 inhibitory activity (1 μM (%))” value was determined as 95%.

Take `C[C@H]1CNCCN1c1nc2cc(Cl)cc(NC3CCCC3)c2o1` [Example 24, (S)-5-Chloro-7-(cyclopentylamino)-2-(2-methylpiperazin-1-yl)benzoxazole]: the “PDE4 inhibitory activity (1 μM (%))” value stood at 27%. In the case of `CCN(CC)c1cc(Cl)cc2nc(N3CCNC[C@@H]3C)oc12` [Example 25, (S)-5-Chloro-7-diethylamino-2-(2-methylpiperazin-1-yl)benzoxazole] it was 53%. In the case of `C[C@H]1CNCCN1c1nc2cc(Cl)cc(N(C)C)c2o1` [Example 26, (S)-5-Chloro-7-dimethylamino-2-(2-methylpiperazin-1-yl)benzoxazole] it was 61%; in that of `C[C@H]1CNCCN1c1nc2cc(Cl)cc(C3CC3)c2o1` [Example 27, (S)-5-Chloro-7-cyclopropyl-2-(2-methylpiperazin-1-yl)benzoxazole], 85%; in that of `C[C@H]1CNCCN1c1nc2cc(Cl)cc(OC3CCCC3)c2o1` [Example 28, (S)-5-Chloro-7-(cyclopentyloxy)-2-(2-methylpiperazin-1-yl)benzoxazole], 81%.

As to `CCOc1cc(Cl)cc2nc(N3CCNC[C@@H]3C)oc12` [Example 29, (S)-5-Chloro-7-ethoxy-2-(2-methylpiperazin-1-yl)benzoxazole], the “PDE4 inhibitory activity (1 μM (%))” value was 63%. `CCCOc1cc(Cl)cc2nc(N3CCNC[C@@H]3C)oc12` [Example 30, (S)-5-Chloro-2-(2-methylpiperazin-1-yl)-7-n-propoxybenzoxazole]: the “PDE4 inhibitory activity (1 μM (%))” value was 61%. On to `C[C@H]1CNCCN1c1nc2cc(Cl)cc(C3CCCC3)c2o1` [Example 31, (S)-5-Chloro-7-cyclopentyl-2-(2-methylpiperazin-1-yl)benzoxazole], for which the “PDE4 inhibitory activity (1 μM (%))” value stood at 51%. Consider `CCCCc1cc(Cl)cc2nc(N3CCNC[C@@H]3C)oc12` [Example 32, (S)-7-n-Butyl-5-chloro-2-(2-methylpiperazin-1-yl)benzoxazole], for which the “PDE4 inhibitory activity (1 μM (%))” value is 62%. As for `C[C@H]1CNCCN1c1nc2cc(Cl)cc(-n3cccn3)c2o1` [Example 33, (S)-5-Chloro-2-(2-methylpiperazin-1-yl)-′7-(1H-pyrazol-1-yl)benzoxazole], the “PDE4 inhibitory activity (1 μM (%))” value came to 93%. For `C[C@H]1CNCCN1c1nc2cc(Cl)cc(-c3ncco3)c2o1` [Example 34, (S)-5-Chloro-2-(2-methylpiperazin-1-yl)-7-(oxazol-2-yl)benzoxazole], the “PDE4 inhibitory activity (1 μM (%))” value is recorded as 89%. In the case of `C[C@H]1CNCCN1c1nc2cc(Cl)cc(-c3nccs3)c2o1` [Example 35, (S)-5-Chloro-2-(2-methylpiperazin-1-yl)-7-(thiazol-2-yl)benzoxazole] it was 96%; in that of `C[C@H]1CNCCN1c1nc2cc(Cl)cc(-n3ccnc3)c2o1` [Example 36, (S)-5-Chloro-7-(1H-imidazol-1-yl)-2-(2-methylpiperazin-1-yl)benzoxazole], 39%. In the case of `C[C@H]1CNCCN1c1nc2cc(Cl)cc(-c3cscn3)c2o1` [Example 37, (S)-5-Chloro-2-(2-methylpiperazin-1-yl)-7-(thiazol-4-yl)benzoxazole], the “PDE4 inhibitory activity (1 μM (%))” value is 98%. For `C[C@H]1CNCCN1c1nc2cc(Cl)cc(-c3cncs3)c2o1` [Example 38, (S)-5-Chloro-2-(2-methylpiperazin-1-yl)-7-(thiazol-5-yl)benzoxazole] the value was 68%; for `Cc1ccc(-c2cc(Cl)cc3nc(N4CCNC[C@@H]4C)oc23)o1` [Example 39, (S)-5-Chloro-7-(5-methylfuran-2-yl)-2-(2-methylpiperazin-1-yl)benzoxazole], 42%.
